# Tests used:
# MK-2 [1] = biological target: T1, MK-2 (Homo sapiens, UniProt P49137); assay: Western blot of MK-2 activity (Hsp-27 Ser82 phosphorylation) in irradiated HeLa cells; format: cell-based; set-up: endogenous in cells; host or cells: HeLa; settings: irradiated HeLa cells, increasing concentrations of SB203580
# Protocol: Protein extract (5-60 μg) was added to 4× gel loading buffer and 10× denaturing solution (Invitrogen) in appropriate proportions, and samples were incubated at 70° C. for 10 min. Samples were run at 200V for 1 hr on a 4-12% Bis-tris gradient gel (Invitrogen). After electrophoresis, samples were transferred for 1.5 hr (350 mA) to a Nitrocellulose membrane (Millipore) using a submerged transfer apparatus (Bio-Rad). Membranes were then blocked with 5% milk in Tris-buffered saline with 0.1% tween (TBST) and probed overnight at 4° C. with the following antibodies: anti-zebrafish Chk1 (diluted 1:200), anti-zebrafish Chk2 (1:200), anti-P-Cdc2 (1:1000), anti-actin (1:2000), anti-human ATR (1:500) and Stressgen anti-human-caspase-3 (1:500) for zebrafish immunoblots; and anti-caspase-2 (1:200), Upstate anti-caspase-3 (1:500), anti-P-ATM (1:500), anti-ATM (1:500), Santa Cruz anti-human Chk1 (1:1000), Santa Cruz anti-human Chk2 (1:1000), anti-P-Chk1 (1:500), anti-P-Chk2 (1:500), anti-P-H2A.X (1:2000), anti-P-cdc25C (1:1000), anti-P-HSP27 (1:1000), anti-HSP27 (1:1000), anti-P-Cdc2 (1:1000), anti-p53 (1:1000) and anti-GAPDH (1:5000) for immunoblots of human tumor cell lysates. Detailed references for all primary antibodies can be found in the ‘Antibodies’ section elsewhere herein.
# Target sequence in this assay (P49137 whole entry): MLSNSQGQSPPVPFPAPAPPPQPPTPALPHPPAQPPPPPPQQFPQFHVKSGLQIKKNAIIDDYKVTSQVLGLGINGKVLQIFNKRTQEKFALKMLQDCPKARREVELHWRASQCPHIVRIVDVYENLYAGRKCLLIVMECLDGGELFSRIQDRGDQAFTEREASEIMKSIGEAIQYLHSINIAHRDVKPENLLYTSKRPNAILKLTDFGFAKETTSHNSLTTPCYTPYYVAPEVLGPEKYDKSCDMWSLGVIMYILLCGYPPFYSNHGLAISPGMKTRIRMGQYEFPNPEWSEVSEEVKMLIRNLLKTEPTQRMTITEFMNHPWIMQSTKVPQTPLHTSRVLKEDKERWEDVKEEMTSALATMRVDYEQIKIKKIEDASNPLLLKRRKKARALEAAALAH
# Chk1 = biological target: T2, Chk1 (Homo sapiens, UniProt O14757); settings: concentration initially thought to specifically inhibit Chk1; cited from earlier work
# T2 sequence (O14757 1-476): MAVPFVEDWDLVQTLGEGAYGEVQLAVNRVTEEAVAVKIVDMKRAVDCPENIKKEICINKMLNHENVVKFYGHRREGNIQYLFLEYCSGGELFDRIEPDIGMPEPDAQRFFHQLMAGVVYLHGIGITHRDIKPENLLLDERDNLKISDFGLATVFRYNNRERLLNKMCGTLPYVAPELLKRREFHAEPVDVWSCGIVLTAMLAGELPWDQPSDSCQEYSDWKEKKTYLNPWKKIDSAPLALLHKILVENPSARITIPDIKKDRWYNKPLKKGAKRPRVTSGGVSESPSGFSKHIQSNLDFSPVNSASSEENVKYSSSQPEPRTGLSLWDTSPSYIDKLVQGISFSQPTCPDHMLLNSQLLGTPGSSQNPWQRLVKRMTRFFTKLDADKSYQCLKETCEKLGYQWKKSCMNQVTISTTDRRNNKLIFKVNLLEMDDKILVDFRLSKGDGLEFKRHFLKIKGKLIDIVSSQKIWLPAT
# MK-2 [2] = biological target: T1, MK-2; settings: concentration initially thought to specifically inhibit Chk1; cited from earlier work
# Target sequence in this assay (P49137 whole entry, species assumed): as the sequence (P49137 whole entry) above
# [3] = system: p53^e7/e7;chk1^MO embryos; assay: Epistasis analyses in irradiated p53^e7/e7;chk1^MO embryos (live AO assay); format: in vivo; settings: 12.5 Gy
# Protocol: To identify such molecules, we performed in vivo epistasis analyses in zebrafish by knocking down or forcing the expression of candidate pathway contributors in p53^e7/e7;chk1^MO embryos.
# Morpholino oligonucleotides (MOs) synthesized by Gene Tools™ LLC, were resuspended in sterile water at a concentration of 1 mM and delivered into zebrafish embryos at the one-cell stage by microinjection. The injection apparatus consisted of a heat-pulled, filamentous RNAse free capillary tube positioned by a micromanipulator (Narishige™ M-125), through which the MO was pressure-injected using a nitrogen air supply controlled by a microinjector (Harvard Apparatus™ PLI-100). MOs were delivered into the yolk of embryos at the one cell stage, just below the cytoplasm. For each previously unpublished MO, the working concentration was determined as the highest dose compatible with normal zebrafish development in the p53^e7/e7 background (maximal subtoxic concentration). […] 100 ng of bcl-xl mRNA in vitro transcribed from full-length zebrafish bcl-xl cDNA cloned into pCS2 were injected as described above. All embryos were grown at 28.5° C. in egg water (5 mM NaCl, 0.17 mM KCl, 0.4 mM CaCl2 and 0.16 mM MgSO4). Knockdown efficiencies for the chk1, chk2, atm, atr, p63, casp8 and casp9 MOs at their maximal subtoxic concentrations are shown in FIG. 10. The sequences of the PCR primers used for RT-PCR-based monitoring of MO efficiencies are available upon request.
# Live zebrafish embryos were dechorionated in pronase (2.0 mg/mL in egg water) for 3 to 5 min and rinsed five times in egg water at 18 hpf. […] At 24 hpf, embryos were incubated in […] Acridine Orange (AO; Sigma A-6014) in egg water for 30 min at 28.5° C., followed by 3 quick rinses and three 10-min washes in egg water. 5-10 AO-treated embryos were anesthetized in Tricaine ([…]; 3-amino benzoic acid ethylester from Sigma, A-5040) and mounted laterally on a glass slide in warm 0.5% agarose in egg water by streaking a thin layer of the warm agarose across the surface of the slide, and gently pulling the embryos across the agar with a transfer pipette. Lateral images of each zebrafish were acquired on a Zeiss Axioplan2 fluorescence microscope (5× lens), using OpenLab software and a Hammamatsu C4742-95 digital camera. All images were then converted to 8-bit grayscale in NIH ImageJ using the Image>Type>8-bit command. Next, we cropped the images using the Polyonal Selection tool and the Image>Crop functions to include only the trunk of the animal from the head until the beginning of the yolk tube (MO screen; FIG. 1B) or along the entire spinal cord (epistasis analyses; FIGS. 6A & 6D). The area outside of the selected region of interest was cleared using the Edit>Clear Outside command to create a distinct boundary around the area of interest (this is important as it allows the area of interest to be precisely selected after applying the threshold). Next, we split the acquired images into features of interest and background using the Image>Adjust>Threshold function in NIH ImageJ. We then set the maximum threshold of each image to 255 (the lower slide bar in the Threshold window), and adjusted the minimum threshold to the optimized threshold (see below). The threshold was applied using the Black & White display option, with the following Lut options applied; Thresholded pixels to foreground color; Remaining pixels to background color and Black foreground, white background. […] Next, we re-selected the region of interest on the thresholded image, following the bounded image carefully, and analyzed the pixels of the image using the Analyze>Analyze Particles function. The Minimum Size was set to 1px, the Maximum Size was set to the maximum value of 999999 and the Masks option was selected under the Show pull-down menu. The following extended options were also selected: Display Results; Clear Results; Summarize, Size Distribution and Record Starts. […]
# zebrafish ATR = assay: MO knockdown efficiency: western blot of ATR levels; format: in vivo; settings: atr MO 0.25 mM, 25.5 hpf lysates
# Excerpt: (§1) (A) Western blot of 25.5 hpf zebrafish protein lysates from non-injected and atr MO-injected embryos using an anti-human ATR antibody recognizing an internal peptide that is highly conserved in zebrafish Atr. Detection of a high molecular weight zebrafish band showing the same migration pattern as human ATR (lane 1) strongly supports crossreactivity of the antibody with zebrafish ATR (the predicted molecular weight of zebrafish ATR, 300 kDa, matches that of human ATR). […] The MO concentration used in the MO screen (FIG. 1) and epistasis analyses (FIG. 5), 0.25 mM, leads to a >50% reduction in ATR levels compared to control (compare lanes 5 with 2 and 3). (B-E) Gel migration profiles of RT-PCR products from non-injected and MO-injected embryos using primers in exons flanking the targeted exon (Table 1). All bands were excised and sequenced. […] All RT-PCRs are semi-quantitative with β-actin amplicon serving as loading control. […] Either aberrant splice product results in the occurrence of an inappropriate early stop codon (as a result of in-frame reading of the intron or of a frameshift caused by exon skipping), which is predicted to result in an early truncation of the ATM protein before the PIKK kinase domain. […] As exemplified in lane 4, this same MO concentration could lead to stronger knockdowns, but in this case the embryos could not be scored in the assay. […]
# casp9 = assay: MO knockdown efficiency: RT-PCR of casp9 transcripts; format: in vivo, zebrafish; settings: maximal subtoxic MO concentration
# Excerpt: as §1
# p53^e7/e7 mutant embryos = assay: Morpholino screen for suppressors of p53^e7/e7 radioresistance (live AO assay); format: in vivo, zebrafish; settings: p53^e7/e7, 12.5 Gy
# Protocol: We used morpholino antisense oligonucleotides (MOs) to knock down the expression levels of 8 zebrafish S- and G2-checkpoint kinases in p53^e7/e7 mutant embryos and assessed the ability of each knockdown to restore cell death (AO reactivity) at 7.5 hours post-IR (hpIR). We also tested several double-knockdown combinations, as well as knockdowns of non-kinase checkpoint regulators (p21^waf1/cip1 and smc1). For each knockdown, we scored a minimum of 50 embryos and quantified AO staining in at least 5 embryos. To avoid the isolation of false-positives, we adjusted the concentrations of each MO to the maximal dose compatible with normal embryonic development in the p53^e7/e7 background.
# Morpholino oligonucleotides (MOs) synthesized by Gene Tools™ LLC, were resuspended in sterile water at a concentration of 1 mM and delivered into zebrafish embryos at the one-cell stage by microinjection. […] For each previously unpublished MO, the working concentration was determined as the highest dose compatible with normal zebrafish development in the p53^e7/e7 background (maximal subtoxic concentration). […]
# Live zebrafish embryos were dechorionated in pronase (2.0 mg/mL in egg water) for 3 to 5 min and rinsed five times in egg water at 18 hpf. […] Lateral images of each zebrafish were acquired on a Zeiss Axioplan2 fluorescence microscope (5× lens), using OpenLab software and a Hammamatsu C4742-95 digital camera. […]
compound,measurement,setting,value
C[S+]([O-])c1ccc(-c2nc(-c3ccncc3)c(-c3ccc(F)cc3)[nH]2)cc1 (centres unmarked) [SB203580],phosphorylated Hsp-27 at Ser82 versus native Hsp-27,MK-2 [1],reduction in the abundance of phosphorylated Hsp-27 at Ser82
"CN[C@@H]1C[C@H]2O[C@@](C)([C@@H]1OC)n1c3ccccc3c3c4c(c5c6ccccc6n2c5c31)C(=O)N[C@H]4O [UCN-01, 7-hydroxystaurosporine]",Chk1 inhibition,Chk1,inhibits both Chk1 and MK-2
same,MK-2 inhibition,MK-2 [2],inhibits both Chk1 and MK-2
atr MO: morpholino against zebrafish atr atg/5'UTR (SEQ ID NO: 15) (TGACATTTCTAGTCCTTGCTCCATC; antisense; all phosphorodiamidate morpholino (PMO)),reduction of the mean p53^e7/e7;chk1^MO AO response,[3],~90%
same,reduction in ATR levels compared to control,zebrafish ATR,> 50%
casp9 MO: morpholino against zebrafish casp9 splice donor site (SEQ ID NO: 26) (GATGGAAAAACACACTTACGGACTG; antisense; all phosphorodiamidate morpholino (PMO)),effect on IR-induced cell death (AO labeling) of p53^e7/e7;chk1^MO embryos,[3],complete absence of effects
same,casp9 knockdown,casp9,~50%
"chk1 mismatch MO: 5 base-pair mismatch version of chk1 MO, agCcaGagcGattatCcaatGttcg (SEQ ID NO: 12) (AGCCAGAGCGATTATCCAATGTTCG; all phosphorodiamidate morpholino (PMO))",radiosensitization of p53 mutants,p53^e7/e7 mutant embryos,failed to radiosensitize p53 mutants

# Reference: patent US9000027B2, “Chk1 suppresses a caspase-2 apoptotic response to DNA damage that bypasses p53, bcl-2 and caspase-3” (Dana-Farber Cancer Institute, Inc., priority 2008, dated 2015)
